From patent US6355799B1, “Substituted benzene compounds, process for their preparation, and herbicidal and defoliant compositions containing them” (ISK Americas Incorporated, priority 1997, dated 2002)

Columns and labels:
Type in all cases: in vivo
[1] = test system: field corn (Zea mays L., var. Dekalb 535, CORN); assay: Post-emerge test, crop safety; conditions: post-emerge, 14 days after application, rating scale 0-100
In short: (§1)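 Fourteen days after spraying, crop and weed injury was graded visually from 0, no effect, to 100, every plant dead. Test substances were dissolved in acetone and applied at 15–1000 g ai/ha with a flat-fan nozzle. Application was either pre-emergence, one day after sowing, or post-emergence at the 2–3 leaf stage.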

[2] = test system: upland rice (Oryza sp., var. Tebonnet, RICE); assay: Post-emerge test, crop safety; conditions: post-emerge, 14 days after application, rating scale 0-100
In short: as §1

[3] = test system: johnsongrass (Sorghum halepense, SORHA); assay: Post-emerge test, greenhouse herbicide activity screening; conditions: post-emerge, 14 days after application, rating scale 0-100
In short: (§2)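 Herbicidal damage is scored 0 (none) to 100 (complete plant death) two weeks after a simulated field spray. Rates span 15–1000 g ai/ha, delivered in acetone at 187 l/ha. For post-emergence treatments, plants have 2–3 leaves and the spray carries 0.25% v/v non-ionic surfactant.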

[4] = test system: velvetleaf (Abutilon theophrasti, ABUTH); assay: as above; conditions: post-emerge, 14 days after application, rating scale 0-100
In short: as §2

[5] = test system: lambsquarters (Chenopodium album, CHEAL); assay: as above; conditions: post-emerge, 14 days after application, rating scale 0-100
In short: as §2

[6] = test system: sicklepod (Cassia obtusifolia, CASOB); assay: as above; conditions: post-emerge, 14 days after application, rating scale 0-100
In short: as §2

[7] = test system: ivyleaf morningglory (Ipomoea hederacea, IPOHE); assay: as above; conditions: post-emerge, 14 days after application, rating scale 0-100
In short: as §2

[8] = test system: green foxtail (Setaria viridis, SETVI); assay: as above; conditions: post-emerge, 14 days after application, rating scale 0-100
In short: as §2

[9] = test system: large crabgrass (Digitaria sanguinalis, DIGSA); assay: as above; conditions: post-emerge, 14 days after application, rating scale 0-100
In short: as §2

[10] = test system: barnyardgrass (Echinochloa crus-galli, ECHCG); assay: as above; conditions: post-emerge, 14 days after application, rating scale 0-100
In short: as §2

[11] = test system: redroot pigweed (Amaranthus retroflexus, AMARE); assay: as above; conditions: post-emerge, 14 days after application
In short: as §2

[12] = test system: johnsongrass (Sorghum halepense, SORHA); assay: Pre-emerge test, greenhouse herbicide activity screening; conditions: for Pre-emerge Herbicidal Activity SORHA: phytotoxicity rating 0-100, 14 days after application; for phytotoxicity rating SORHA: pre-emerge, 14 days after application, rating scale 0-100
In short: as §1

[13] = test system: velvetleaf (Abutilon theophrasti, ABUTH); assay: as above; conditions: for Pre-emerge Herbicidal Activity ABUTH: phytotoxicity rating 0-100, 14 days after application; for phytotoxicity rating ABUTH: pre-emerge, 14 days after application, rating scale 0-100
In short: as §1

[14] = test system: lambsquarters (Chenopodium album, CHEAL); assay: as above; conditions: for Pre-emerge Herbicidal Activity CHEAL: phytotoxicity rating 0-100, 14 days after application; for phytotoxicity rating CHEAL: pre-emerge, 14 days after application, rating scale 0-100
In short: as §1

[15] = test system: sicklepod (Cassia obtusifolia, CASOB); assay: as above; conditions: for Pre-emerge Herbicidal Activity CASOB: phytotoxicity rating 0-100, 14 days after application; for phytotoxicity rating CASOB: pre-emerge, 14 days after application, rating scale 0-100
In short: as §1

[16] = test system: ivyleaf morningglory (Ipomoea hederacea, IPOHE); assay: as above; conditions: for Pre-emerge Herbicidal Activity IPOHE: phytotoxicity rating 0-100, 14 days after application; for phytotoxicity rating IPOHE: pre-emerge, 14 days after application, rating scale 0-100
In short: as §1

[17] = test system: green foxtail (Setaria viridis, SETVI); assay: as above; conditions: for Pre-emerge Herbicidal Activity SETVI: phytotoxicity rating 0-100, 14 days after application; for phytotoxicity rating SETVI: pre-emerge, 14 days after application, rating scale 0-100
In short: as §1

[18] = test system: large crabgrass (Digitaria sanguinalis, DIGSA); assay: as above; conditions: for Pre-emerge Herbicidal Activity DIGSA: phytotoxicity rating 0-100, 14 days after application; for phytotoxicity rating DIGSA: pre-emerge, 14 days after application, rating scale 0-100
In short: as §1

[19] = test system: barnyardgrass (Echinochloa crus-galli, ECHCG); assay: as above; conditions: for Pre-emerge Herbicidal Activity ECHCG: phytotoxicity rating 0-100, 14 days after application; for phytotoxicity rating ECHCG: pre-emerge, 14 days after application, rating scale 0-100
In short: as §1

[20] = test system: redroot pigweed (Amaranthus retroflexus, AMARE); assay: as above; conditions: for Pre-emerge Herbicidal Activity AMARE: phytotoxicity rating 0-100, 14 days after application; for phytotoxicity rating AMARE: pre-emerge, 14 days after application, rating scale 0-100
In short: as §2

[21] = test system: field corn (Zea mays L., var. Dekalb 535, CORN); assay: Pre-emerge test, crop safety; conditions: for Pre-emerge Herbicidal Activity CORN: crop damage rating 0-100, 14 days after application; for phytotoxicity rating CORN: pre-emerge, 14 days after application, rating scale 0-100
In short: (§3)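 Visual ratings on a 0-100 scale (0 no damage, 100 all plants dead) were taken at 14 days after treatment. Rates of 15-1000 g ai/ha in acetone, 187 l/ha, were sprayed onto soil one day after planting (pre-emerge) or onto 2-3 leaf plants with 0.25% v/v surfactant (post-emerge).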

[22] = test system: upland rice (Oryza sp., var. Tebonnet, RICE); assay: Pre-emerge test, crop safety; conditions: for Pre-emerge Herbicidal Activity RICE: crop damage rating 0-100, 14 days after application; for phytotoxicity rating RICE: pre-emerge, 14 days after application, rating scale 0-100
In short: as §3

[23] = 63 g ai/ha, rating scale 0-100 (0 no damage, 100 complete death)
[24] = 250 g ai/ha, rating scale 0-100

COc1c(Cl)cc(F)c(-n2c(=O)cc(C(F)(F)F)n(C)c2=O)c1NC(=O)OCc1ccccc1C(F)(F)F [4-33]
phytotoxicity rating CORN (crop damage) ([1]; 63 g ai/ha): 15 | phytotoxicity rating CORN (crop damage) ([1]; 250 g ai/ha): 25 | phytotoxicity rating RICE (crop damage) ([2]; 63 g ai/ha): 30 | phytotoxicity rating RICE (crop damage) ([2]; 250 g ai/ha): 40 | phytotoxicity rating SORHA ([3]; 63 g ai/ha): 0 | phytotoxicity rating SORHA ([3]; 250 g ai/ha): 30 | phytotoxicity rating ABUTH ([4]; 63 g ai/ha): 100 | phytotoxicity rating ABUTH ([4]; 250 g ai/ha): 100 | phytotoxicity rating CHEAL ([5]; 63 g ai/ha): 90 | phytotoxicity rating CHEAL ([5]; 250 g ai/ha): 100 | phytotoxicity rating CASOB ([6]; 63 g ai/ha): 30 | phytotoxicity rating CASOB ([6]; 250 g ai/ha): 70 | phytotoxicity rating IPOHE ([7]; 63 g ai/ha): 100 | phytotoxicity rating IPOHE ([7]; 250 g ai/ha): 100 | phytotoxicity rating SETVI ([8]; 63 g ai/ha): 30 | phytotoxicity rating SETVI ([8]; 250 g ai/ha): 40 | phytotoxicity rating DIGSA ([9]; 63 g ai/ha): 10 | phytotoxicity rating DIGSA ([9]; 250 g ai/ha): 30 | phytotoxicity rating ECHCG ([10]; 63 g ai/ha): 10 | phytotoxicity rating ECHCG ([10]; 250 g ai/ha): 20 | phytotoxicity rating AMARE [11, 23]: 100 | phytotoxicity rating AMARE [11, 24]: 100 | Pre-emerge Herbicidal Activity SORHA ([12]; 63 g ai/ha): 30 | Pre-emerge Herbicidal Activity SORHA ([12]; 250 g ai/ha): 80 | Pre-emerge Herbicidal Activity ABUTH ([13]; 63 g ai/ha): 50 | Pre-emerge Herbicidal Activity ABUTH ([13]; 250 g ai/ha): 100 | Pre-emerge Herbicidal Activity CHEAL ([14]; 63 g ai/ha): 100 | Pre-emerge Herbicidal Activity CHEAL ([14]; 250 g ai/ha): 100 | Pre-emerge Herbicidal Activity CASOB ([15]; 63 g ai/ha): 0 | Pre-emerge Herbicidal Activity CASOB ([15]; 250 g ai/ha): 50 | Pre-emerge Herbicidal Activity IPOHE ([16]; 63 g ai/ha): 0 | Pre-emerge Herbicidal Activity IPOHE ([16]; 250 g ai/ha): 70 | Pre-emerge Herbicidal Activity SETVI ([17]; 63 g ai/ha): 100 | Pre-emerge Herbicidal Activity SETVI ([17]; 250 g ai/ha): 100 | Pre-emerge Herbicidal Activity DIGSA ([18]; 63 g ai/ha): 45 | Pre-emerge Herbicidal Activity DIGSA ([18]; 250 g ai/ha): 90 | Pre-emerge Herbicidal Activity ECHCG ([19]; 63 g ai/ha): 20 | Pre-emerge Herbicidal Activity ECHCG ([19]; 250 g ai/ha): 80 | Pre-emerge Herbicidal Activity AMARE ([20]; 63 g ai/ha): 100 | Pre-emerge Herbicidal Activity AMARE ([20]; 250 g ai/ha): 100 | Pre-emerge Herbicidal Activity CORN ([21]; 63 g ai/ha): 10 | Pre-emerge Herbicidal Activity CORN ([21]; 250 g ai/ha): 50 | Pre-emerge Herbicidal Activity RICE ([22]; 63 g ai/ha): 20 | Pre-emerge Herbicidal Activity RICE ([22]; 250 g ai/ha): 40

COc1c(Cl)cc(F)c(-n2c(=O)cc(C(F)(F)F)n(C)c2=O)c1NN=CCc1ccccc1 [15-15]
Post-emerge Herbicidal Activity CORN (crop damage rating) ([1]; 63 g ai/ha): 45 | Post-emerge Herbicidal Activity CORN (crop damage rating) ([1]; 250 g ai/ha): 90 | Post-emerge Herbicidal Activity RICE (crop damage rating) ([2]; 63 g ai/ha): 70 | Post-emerge Herbicidal Activity RICE (crop damage rating) ([2]; 250 g ai/ha): 95 | Post-emerge Herbicidal Activity SORHA (phytotoxicity rating) ([3]; 63 g ai/ha): 30 | Post-emerge Herbicidal Activity SORHA (phytotoxicity rating) ([3]; 250 g ai/ha): 99 | Post-emerge Herbicidal Activity ABUTH (phytotoxicity rating) ([4]; 63 g ai/ha): 100 | Post-emerge Herbicidal Activity ABUTH (phytotoxicity rating) ([4]; 250 g ai/ha): 100 | Post-emerge Herbicidal Activity CHEAL (phytotoxicity rating) ([5]; 63 g ai/ha): 100 | Post-emerge Herbicidal Activity CHEAL (phytotoxicity rating) ([5]; 250 g ai/ha): 100 | Post-emerge Herbicidal Activity CASOB (phytotoxicity rating) ([6]; 63 g ai/ha): 80 | Post-emerge Herbicidal Activity CASOB (phytotoxicity rating) ([6]; 250 g ai/ha): 100 | Post-emerge Herbicidal Activity IPOHE (phytotoxicity rating) ([7]; 63 g ai/ha): 90 | Post-emerge Herbicidal Activity IPOHE (phytotoxicity rating) ([7]; 250 g ai/ha): 100 | Post-emerge Herbicidal Activity SETVI (phytotoxicity rating) ([8]; 63 g ai/ha): 40 | Post-emerge Herbicidal Activity SETVI (phytotoxicity rating) ([8]; 250 g ai/ha): 95 | Post-emerge Herbicidal Activity DIGSA (phytotoxicity rating) ([9]; 63 g ai/ha): 40 | Post-emerge Herbicidal Activity DIGSA (phytotoxicity rating) ([9]; 250 g ai/ha): 100 | Post-emerge Herbicidal Activity ECHCG (phytotoxicity rating) ([10]; 63 g ai/ha): 30 | Post-emerge Herbicidal Activity ECHCG (phytotoxicity rating) ([10]; 250 g ai/ha): 100 | Post-emerge Herbicidal Activity AMARE (phytotoxicity rating) [11, 23]: 100 | Post-emerge Herbicidal Activity AMARE (phytotoxicity rating) [11, 24]: 100 | phytotoxicity rating SORHA ([12]; 63 g ai/ha): 100 | phytotoxicity rating SORHA ([12]; 250 g ai/ha): 100 | phytotoxicity rating ABUTH ([13]; 63 g ai/ha): 100 | phytotoxicity rating ABUTH ([13]; 250 g ai/ha): 100 | phytotoxicity rating CHEAL ([14]; 63 g ai/ha): 100 | phytotoxicity rating CHEAL ([14]; 250 g ai/ha): 100 | phytotoxicity rating CASOB ([15]; 63 g ai/ha): 100 | phytotoxicity rating CASOB ([15]; 250 g ai/ha): 100 | phytotoxicity rating IPOHE ([16]; 63 g ai/ha): 100 | phytotoxicity rating IPOHE ([16]; 250 g ai/ha): 100 | phytotoxicity rating SETVI ([17]; 63 g ai/ha): 100 | phytotoxicity rating SETVI ([17]; 250 g ai/ha): 100 | phytotoxicity rating DIGSA ([18]; 63 g ai/ha): 100 | phytotoxicity rating DIGSA ([18]; 250 g ai/ha): 100 | phytotoxicity rating ECHCG ([19]; 63 g ai/ha): 100 | phytotoxicity rating ECHCG ([19]; 250 g ai/ha): 100 | phytotoxicity rating AMARE ([20]; 63 g ai/ha): 100 | phytotoxicity rating AMARE ([20]; 250 g ai/ha): 100 | phytotoxicity rating CORN ([21]; 63 g ai/ha): 95 | phytotoxicity rating CORN ([21]; 250 g ai/ha): 100 | phytotoxicity rating RICE ([22]; 63 g ai/ha): 95 | phytotoxicity rating RICE ([22]; 250 g ai/ha): 100
